Results taken from article PMC11079024, “Identification of a family of species-selective complex I inhibitors as potential anthelmintics” (Nature Communications, 2024).
Read-outs that look alike come from different tables or passages of the source.

Columns and labels:
in vitro = conditions: human; for viability at 2 days, 3.13 µM / viability at 2 days, 6.25 µM / viability at 2 days, 12.5 µM / viability at 2 days, 25 µM / viability at 2 days, 50 µM / viability at 2 days, 100 µM: HEK293 cells (Flp-In-293); for viability at 2 days, 3.13 µM / viability at 2 days, 6.25 µM / viability at 2 days, 12.5 µM / viability at 2 days, 25 µM / viability at 2 days, 50 µM / viability at 2 days, 100 µM / viability: HEK293 viability
[1] = test system: ben-1 mutant (ECA882) C. elegans; assay: microbe, parasite or virus in culture; conditions: Caenorhabditis elegans; for viability at 1 µM / viability at 2 µM / viability at 3.9 µM / viability at 15.6 µM / viability at 31.3 µM / viability at 62.5 µM / viability at 125 µM / viability at 250 µM / viability at 500 µM / viability at 1000 µM: read-out: C. elegans ben-1(e1880) development/viability
Summary of the method: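 Development and viability scored from single well images as total worm pixels divided by the matching DMSO control value, mean of ≥3 replicates. Worms added as synchronized L1s to HB101 suspension in liquid NGM with compound (1% DMSO v/v), grown 6 days at 20 °C with shaking.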

[2] = HEK293 Cell Viability Assay LC50, HEK293 cells, estimated from fitted dose-response curves, mean of at least two biological replicates
[3] = 50 μM, […], KCN survival assay, hit = relative motility below 0.25
[4] = Dose 0.2 µM, mean of at least three biological replicates
[5] = read-out: C. elegans (ben-1) Development & Viability Assay LC50
[6] = read-out: C. elegans ben-1 log10 LC50 (converted)
[7] = 50 μM, […], hit = relative motility below 0.25 3 hours after removal of KCN

Structure (SMILES)	CC50 at 2 days (in vitro; [2])	viability at 2 days, 3.13 µM (in vitro; Dose 3.13 µM)	viability at 2 days, 6.25 µM (in vitro; Dose 6.25 µM)	viability at 2 days, 12.5 µM (in vitro)	viability at 2 days, 25 µM (in vitro)	viability at 2 days, 50 µM (in vitro)	viability at 2 days, 100 µM (in vitro)	Screen "Hit" (L1 wild-type C. elegans; [3])	C. elegans KCN Survival (L1 wild-type C. elegans; [4])	C. elegans KCN Survival (L1 wild-type C. elegans; Dose 0.39 µM)	C. elegans KCN Survival (L1 wild-type C. elegans; Dose 1.56 µM)	C. elegans KCN Survival (L1 wild-type C. elegans; Dose 3.13 µM)	C. elegans KCN Survival (L1 wild-type C. elegans; Dose 6.25 µM)	C. elegans KCN Survival (L1 wild-type C. elegans; Dose 12.5 µM)	C. elegans KCN Survival (L1 wild-type C. elegans; Dose 25 µM)	C. elegans KCN Survival (L1 wild-type C. elegans; Dose 50 µM)	C. elegans KCN Survival (L1 wild-type C. elegans; Dose 100 µM)	LC50 [1, 5]	LC50 [1, 6]	CC50 at 2 days (in vitro)	other results
Cc1ccc(SCCCCn2cnc3ccccc32)cc1 [Compound 7925333]	75.1 µM	88.6%	97%	99.2%	100%	77.2%	25.7%	Y (hits were identified as compounds that reduced relative motility below 0.25 (75% reduction))	0.989	1.001	0.933	0.876	0.745	0.174	0.119	0.151	0.185	227 µM	227 µM	–	viability at 1 µM [1]: 92%; viability at 2 µM [1]: 100%; viability at 3.9 µM [1]: 98%; viability at 15.6 µM [1]: 90.4%; viability at 31.3 µM [1]: 93.2%; viability at 62.5 µM [1]: 77.8%; viability at 125 µM [1]: 80.7%; viability at 250 µM [1]: 53.9%; viability at 500 µM [1]: 3.6%; viability at 1000 µM [1]: 1%
Cc1ccc(C(C)C)c(OCC(O)Cn2cnc3ccccc32)c1 (stereo not shown) [Compound 6093301]	–	90.1%	92.9%	85.6%	32.4%	7.3%	7.2%	–	1.001	1.016	1.025	0.981	0.940	0.855	0.337	0.161	0.196	366 µM	366 µM	21.8 µM	Screen "Hit" (L1 wild-type C. elegans; [7]): Y (hits were identified as compounds that reduced relative motility below 0.25 (75% reduction)); viability at 1 µM [1]: 94.1%; viability at 2 µM [1]: 98.7%; viability at 3.9 µM [1]: 95.9%; viability at 15.6 µM [1]: 96.4%; viability at 31.3 µM [1]: 97.2%; viability at 62.5 µM [1]: 83.6%; viability at 125 µM [1]: 88.1%; viability at 250 µM [1]: 88.4%; viability at 500 µM [1]: 12.5%; viability at 1000 µM [1]: 4.7%
Brc1ccc(Cn2cnc3ccccc32)cc1 [Compound 5542661]	–	–	–	–	–	–	–	Y (hits were identified as compounds that reduced relative motility below 0.25 (75% reduction))	–	–	–	–	–	–	–	–	–	41.4 µM	41.4 µM	> 100 µM	–
Cc1nc2ccccc2n1Cc1ccccc1Cl [Compound 6707368]	–	–	–	–	–	–	–	Y (hits were identified as compounds that reduced relative motility below 0.25 (75% reduction))	–	–	–	–	–	–	–	–	–	135 µM	135 µM	> 100 µM	–
Cc1nc2ccccc2n1Cc1ccc(Br)cc1 [Compound 5567167]	89.3 µM	–	–	–	–	–	–	Y (hits were identified as compounds that reduced relative motility below 0.25 (75% reduction))	–	–	–	–	–	–	–	–	–	11.2 µM	11.2 µM	–	–
Nc1nc2ccccc2n1Cc1ccc(Br)cc1 [Compound 7313068]	41.7 µM	–	–	–	–	–	–	Y (hits were identified as compounds that reduced relative motility below 0.25 (75% reduction))	–	–	–	–	–	–	–	–	–	63.1 µM	63.1 µM	–	–
Cc1ccc(Cn2c(C)nc3ccccc32)cc1 [Compound 5651984]	95.4 µM	–	–	–	–	–	–	Y (hits were identified as compounds that reduced relative motility below 0.25 (75% reduction))	–	–	–	–	–	–	–	–	–	108 µM	108 µM	–	–
C=CCn1c(C(C)c2ccc(CC(C)C)cc2)nc2ccccc21 (stereo not shown) [STL020755]	49.5 µM	–	–	–	–	–	–	–	–	–	–	–	–	–	–	–	–	285 µM	284 µM	–	Screen "Hit" (L1 wild-type C. elegans; 50 μM compound, […], hit = relative motility below 0.25 3 hours after removal of KCN): Y (hits were identified as compounds that reduced relative motility below 0.25 (75% reduction))
Cc1ccc(CSCc2nc3ccccc3[nH]2)cc1 [Compound 7121781]	–	–	–	90%	91.3%	64.3%	28.3%	–	1.008	0.850	0.802	0.857	0.615	0.348	0.053	0.003	0.000	468 µM	468 µM	74.2 µM	viability (in vitro; Dose 3.13 µM): 86.1%; viability (in vitro; Dose 6.25 µM): 87.2%; Screen "Hit" (L1 wild-type C. elegans; [7]): Y (hits were identified as compounds that reduced relative motility below 0.25 (75% reduction)); Relative Motility (L1 wild-type C. elegans; 50 μM, […], worm motility 3 hours after removal of KCN, relative to DMSO controls, single biological replicate): 0.077; viability at 15.6 µM [1]: 87.2%; viability at 31.3 µM [1]: 91.7%; viability at 62.5 µM [1]: 100%; viability at 125 µM [1]: 87.1%; viability at 250 µM [1]: 86.1%; viability at 500 µM [1]: 47.1%; viability at 1000 µM [1]: 8.1%
CCCOc1ccc(Cn2cnc3ccccc32)cc1 [Compound 7355741]	76.2 µM	99.8%	100%	100%	100%	78.9%	30.3%	Y (hits were identified as compounds that reduced relative motility below 0.25 (75% reduction))	0.923	0.831	0.783	1.007	0.620	0.122	0.000	0.000	0.000	85.3 µM	85.3 µM	–	–
FC(F)(F)c1cccc(OCCCCn2cnc3ccccc32)c1 [Compound 7925004]	–	99.3%	99.5%	100%	61.3%	16.2%	6.8%	Y (hits were identified as compounds that reduced relative motility below 0.25 (75% reduction))	1.053	1.068	1.004	1.026	0.948	0.632	0.094	0.092	0.126	47.3 µM	47.3 µM	29.2 µM	viability at 1 µM [1]: 93.7%; viability at 2 µM [1]: 95.4%; viability at 3.9 µM [1]: 96.9%; viability at 15.6 µM [1]: 76.5%; viability at 31.3 µM [1]: 75.3%; viability at 62.5 µM [1]: 28%; viability at 125 µM [1]: 3.4%; viability at 250 µM [1]: 2.3%; viability at 500 µM [1]: 2.6%; viability at 1000 µM [1]: 1.1%
